Reference: PMC4669759 (Cell Death & Disease, 2015)
“And” between values parts separate entries of the source, which are not always exact repeats. Equal entries are not always repeated.

How the values were obtained:
[1] = biological target: MCL-1 (Homo sapiens, UniProt Q07820); experiment: TR-FRET binding affinity assay, MCL-1
Method: TR-FRET-binding affinity assays were performed for BCL-2, BCL-XL, and MCL-1 in 4.52 mM monobasic potassium phosphate, 15.48 mM dibasic potassium phosphate, 1 mM sodium EDTA, 0.05% Pluronic F-68 detergent, 50 mM sodium chloride, and 1 mM DTT (pH 7.5) as described previously for BCL-XL.[6] For MCL-1 assays, GST-tagged MCL-1 (1 nM) was mixed with 100 nM f-Bak, 1 nM Tb-labeled anti-GST antibody, and compound at room temperature (RT) for 60 min. Fluorescence was measured on an Envision plate reader (Perkin-Elmer, Waltham, MA, USA) using a 340/35 nm excitation filter and 520/525 (f-Bak) and 495/510 nm (Tb-labeled anti-GST antibody) emission filters.

[2] = test system: MCL-1(3B)–BIMS(2A)ΔC complexes; experiment: Live cell redistribution assay, eGFP-MCL-1(3B) and mCherry-BIMS(2A)ΔC, T-REx-293 cells; format: cell-based
Source text: To further rule out potential artifacts associated with lysate detergents that can influence interactions between BCL-2 family proteins,[47] we employed a recently described real-time imaging method to assess the effects on BCL-2 family complexes in live cells.[48] Briefly, interacting pairs of BCL-2 family proteins are expressed as fluorescent fusion proteins at stoichiometric levels from a bicistronic expression module integrated into a single site of the genome in T-REx-293 cells. Under basal conditions, both proteins localize primarily to the mitochondria, where the anti-apoptotic proteins (enhanced green fluorescent protein (eGFP)-BCL-2, eGFP-BCL-XL, or eGFP-MCL-1(3B)) sequester their pro-apoptotic counterparts (mCherry-BAD or mCherry-BIMS(2A)ΔC, the latter being a specific binder of MCL-1[48], [49]). Disruption of these complexes can be tracked by measuring the amount of mCherry-labeled BH3-only protein localized specifically to the mitochondria. […]
Figure 3 A-1210477 inhibits MCL-1-BIM complexes in live cells. […] The decrease in amount of mCherry-BH3 protein localized to the mitochondria was quantified as a function of time as described in the Materials and Methods, normalized to DMSO control, and fitted to a single exponential decay. Each data point represents the mean change in intensity calculated from 10 fields of view, with error bars indicating the S.E.M. (b) T-REx-293 cells stably expressing eGFP-MCL-1(3B) and mCherry-BIMS(2A)ΔC were treated with 50 μM ABT-737 or increasing concentrations (1–25 μM) A-1210477 for 100 min. The decrease in amount of mCherry-BIMS(2A)ΔC localized to the mitochondria was quantified as in panel (a). (c) Representative fluorescence microscopic images of T-REx-293 cells stably expressing eGFP-BCL-2 family and interacting mCherry-BH3-only proteins before and after 300 min of treatment with 10 μM A-1210477 or (d) ABT-737. […]
Experiments were carried out as detailed previously.[48] […] Therefore, the entire cell was identified with a single intensity threshold applied to the eGFP fluorescence, excluding areas identified as mitochondria. […]

[3] = test system: EJ-1 cells; experiment: Navitoclax / A-1210477 combination cell viability, EJ-1 cells; format: cell-based; details: EJ-1, 48 h
Method: Figure 6 A-1210477 synergizes with navitoclax to kill hematological and solid tumor cell lines. BxPC-3, EJ-1, H23, and OPM-2 cells were treated with increasing concentrations of navitoclax in the presence or absence of increasing concentrations of A-1210477 for 48 h before assessing cell viability. All data points represent the means of triplicate experiments, with error bars indicating the S.E.M. TEXT PRINTED IN THE PICTURE: A-1210477 + navitoclax: Bliss sum (BxPC-3): 716; Bliss sum (EJ-1): 464; Bliss sum (H23): 76; Bliss sum (OPM-2): 946 DOUBTS OF THE COPYIST ABOUT THIS PICTURE: The Bliss sums apply to the combination of A-1210477 and navitoclax. The picture prints the two names separately (legend heading and axis title), not as one joined label.
Adherent cell lines were seeded at 50 000 cells per well in 96-well plates and treated for 48 h with compounds diluted in half-log steps starting at 30 μM and ending at 0.001 μM. Multiple myeloma cell lines were seeded at 15 000–20 000 cells per well and treated similarly. Effects on proliferation and viability were determined using CellTiter-Glo reagent from Promega (Madison, WI, USA) according to the manufacturer's instructions. IC50 values were determined by non-linear regression analysis of the concentration response data.

Sequence of MCL-1 (Q07820 whole entry): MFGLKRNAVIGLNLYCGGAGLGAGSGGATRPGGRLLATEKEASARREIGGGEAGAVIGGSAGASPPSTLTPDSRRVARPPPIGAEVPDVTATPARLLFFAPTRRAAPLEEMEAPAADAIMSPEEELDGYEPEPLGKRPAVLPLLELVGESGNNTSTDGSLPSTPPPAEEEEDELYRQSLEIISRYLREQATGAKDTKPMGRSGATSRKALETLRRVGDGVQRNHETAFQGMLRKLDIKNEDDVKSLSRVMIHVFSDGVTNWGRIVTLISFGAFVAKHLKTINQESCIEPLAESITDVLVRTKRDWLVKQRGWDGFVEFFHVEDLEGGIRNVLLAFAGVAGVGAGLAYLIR

In the case of `Cc1nn(C)c(COc2ccc(N3CCN(S(=O)(=O)N(C)C)CC3)cc2)c1-c1cccc2c(CCCOc3cccc4ccccc34)c(C(=O)O)n(CCN3CCOCC3)c12` [A-1210477], the Ki [1] is reported as 0.4 to 0.5 nM and 0.454 nM, the “redistribution of mCherry-BIMS(2A)ΔC from mitochondria” value ([2]; T-REx-293 cells expressing MCL-1(3B)) is reported as “induced dose-dependent redistribution of BIMS(2A)ΔC to the cytosol” and the “lowest concentration at which BIMS(2A)ΔC redistribution could be observed” value ([2]; T-REx-293 cells, 100 min) is reported as 1 µM. For the same molecule, the potentiation of navitoclax [3] was “substantially shifted the dose–response curve of navitoclax”.
